Publication PMC5598323 (Toxicology Reports, 2015)
Like-named read-outs stand apart in the source and are kept apart here.

Experiments:
CYP1A enzyme [1] = conditions: rat liver microsomes; cited from earlier work
CYP3A4 = CYP3A4 (Homo sapiens, UniProt P08684); experiment: CYP3A4 testosterone 6β-hydroxylase assay in human liver microsomes; format: in vitro ADME; conditions: for inhibition of CYP3A4 in HLM (in words): even upto 50 μM concentrations
[2] = stated in discussion, no experiment and reference not given, cited from earlier work
CYP1A enzyme [3] = conditions: human liver microsomes; cited from earlier work
CYP2D6 = CYP2D6 (Homo sapiens, UniProt P10635); experiment: CYP2D6 dextromethorphan O-demethylation assay in human liver microsomes; format: in vitro ADME; conditions: for inhibition of CYP2D6 in HLM (in words): even upto 50 μM concentrations
Sequence of CYP2D6 (P10635 whole entry): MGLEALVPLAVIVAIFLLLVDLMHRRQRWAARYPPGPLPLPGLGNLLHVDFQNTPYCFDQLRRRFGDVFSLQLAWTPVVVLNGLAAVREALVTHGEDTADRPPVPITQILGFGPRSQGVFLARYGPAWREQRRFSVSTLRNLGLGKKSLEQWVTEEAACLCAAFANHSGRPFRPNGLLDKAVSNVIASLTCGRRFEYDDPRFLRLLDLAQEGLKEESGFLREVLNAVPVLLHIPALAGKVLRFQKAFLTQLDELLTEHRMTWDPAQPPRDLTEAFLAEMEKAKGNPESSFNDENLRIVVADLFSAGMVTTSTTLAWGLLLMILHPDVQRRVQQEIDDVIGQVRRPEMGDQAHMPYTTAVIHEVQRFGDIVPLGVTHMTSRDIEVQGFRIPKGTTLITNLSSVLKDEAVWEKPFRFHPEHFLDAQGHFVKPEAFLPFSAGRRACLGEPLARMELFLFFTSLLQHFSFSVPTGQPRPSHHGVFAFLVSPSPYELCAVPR

CYP2C9 = CYP2C9 (Homo sapiens, UniProt P11712); experiment: CYP2C9 diclofenac 4′-hydroxylation assay in human liver microsomes; conditions: for inhibition of CYP2C9 in HLM (in words): even upto 50 μM concentrations
Sequence of CYP2C9 (P11712 whole entry): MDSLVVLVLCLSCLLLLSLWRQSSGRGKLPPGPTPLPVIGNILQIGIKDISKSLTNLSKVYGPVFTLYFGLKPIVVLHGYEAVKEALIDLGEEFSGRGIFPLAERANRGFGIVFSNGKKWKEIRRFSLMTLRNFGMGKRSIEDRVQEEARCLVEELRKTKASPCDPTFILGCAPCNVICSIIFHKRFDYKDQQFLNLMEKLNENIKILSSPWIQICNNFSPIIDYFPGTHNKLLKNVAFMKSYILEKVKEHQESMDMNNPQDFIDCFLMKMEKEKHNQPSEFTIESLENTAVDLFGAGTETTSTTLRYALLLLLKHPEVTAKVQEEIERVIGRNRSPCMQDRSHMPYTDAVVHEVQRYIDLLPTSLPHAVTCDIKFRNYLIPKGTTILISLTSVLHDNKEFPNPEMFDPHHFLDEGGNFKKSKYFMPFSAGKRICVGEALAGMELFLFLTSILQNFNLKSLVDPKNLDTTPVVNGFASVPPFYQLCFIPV

[4] = IC50 values CYP3A4 (in μg/ml, in brackets), HLM, μM bound converted to μg/ml
[5] = IC50 values CYP3A4, HLM, testosterone 100 μM, tested 1–50 μM
[6] = IC50 values CYP2D6 (in μg/ml, in brackets), HLM, μM bound converted to μg/ml
[7] = IC50 values CYP2D6, HLM, dextromethorphan 8 μM, tested 1–50 μM
[8] = IC50 values CYP2C9 (in μg/ml, in brackets), HLM, μM bound converted to μg/ml
[9] = IC50 values CYP2C9, HLM, diclofenac 50 μM, tested 1–50 μM

Sequence of CYP3A4 (P08684 whole entry): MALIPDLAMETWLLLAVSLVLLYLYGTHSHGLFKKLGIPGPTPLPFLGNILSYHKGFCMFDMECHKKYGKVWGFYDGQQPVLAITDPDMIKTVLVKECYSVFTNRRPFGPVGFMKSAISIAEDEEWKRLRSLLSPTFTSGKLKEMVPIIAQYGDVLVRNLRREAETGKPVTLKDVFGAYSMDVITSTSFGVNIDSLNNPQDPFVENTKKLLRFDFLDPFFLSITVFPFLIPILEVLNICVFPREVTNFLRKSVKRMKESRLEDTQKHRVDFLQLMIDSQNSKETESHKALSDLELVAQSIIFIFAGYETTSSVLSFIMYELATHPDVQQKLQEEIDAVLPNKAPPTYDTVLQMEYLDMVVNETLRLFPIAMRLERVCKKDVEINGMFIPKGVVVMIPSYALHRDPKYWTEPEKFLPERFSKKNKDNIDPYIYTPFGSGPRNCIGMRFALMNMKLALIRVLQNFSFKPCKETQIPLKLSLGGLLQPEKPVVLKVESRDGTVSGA

| IC50 (CYP3A4; [4]) [µM] | IC50 (CYP3A4; [5]) [µM] | inhibition of CYP3A4 in HLM (in words) (CYP3A4) | IC50 (CYP2D6; [6]) [µM] | IC50 (CYP2D6; [7]) [µM] | inhibition of CYP2D6 in HLM (in words) (CYP2D6) | IC50 (CYP2C9; [8]) [µM] | IC50 (CYP2C9; [9]) [µM] | inhibition of CYP2C9 in HLM (in words) (CYP2C9) | SMILES | inhibition of CYP1A enzyme (in words) (CYP1A enzyme [1]) | solubility in methanol [2] | solubility in water ([2]; water) | inhibition of CYP1A enzyme (in words) (CYP1A enzyme [3]) | solubility in hexane ([2]; hexane) |
| --- | --- | --- | --- | --- | --- | --- | --- | --- | --- | --- | --- | --- | --- | --- |
| > 51.2 | > 50 | no significant inhibition | > 51.2 | > 50 | no significant inhibition | > 51.2 | > 50 | no significant inhibition | CC1(C)CC[C@]2(C(=O)O)CC[C@]3(C)C(=CC[C@@H]4[C@@]5(C)C[C@@H](O)[C@H](O)C(C)(C)[C@@H]5CC[C@]43C)[C@@H]2[C@@H]1O [Arjunic acid] | did not show inhibition | freely soluble | insoluble | did not show inhibition |  |
| > 49.5 | > 50 | no significant inhibition | > 49.5 | > 50 | no significant inhibition | > 49.5 | > 50 | no significant inhibition | CC1(C)CC[C@]2(C(=O)O)CC[C@]3(C)C(=CC[C@@H]4[C@@]5(C)C[C@@H](O)[C@H](O)[C@@](C)(CO)[C@@H]5CC[C@]43C)[C@@H]2[C@@H]1O [Arjungenin, arjungenin] | did not show inhibition | freely soluble |  | did not show inhibition | insoluble |
